The values below come from ChEMBL document CHEMBL1126392, “Semisynthesis and biological activity of taxol analogues: baccatin III 13-(N-benzoyl-(2R,3S)-3-(p-tolyl)isoserinate), baccatin III 13-(N-(p-toluoyl)-2R,3S)-3-phenylisoserinate), baccatin III 13-(N-benzoyl-(2R,3S)-3-(p-trifluoromethylphenyl)isoserinate), and baccatin III …” (1992).

The structures appear in SMILES notation. Active and inactive are the calls of the source. The rule behind the calls is not given here.

The nature of test [1]: (§1) Concentration which causes polymerization of 50 % of the tubulin present, in 15 min at 37 C, as a ratio in comparison wth taxol (taxol ED50 = 0.7 to 0.8 uM). The class given is functional.
In test [2] the test system is B16. Briefly: Compound was evaluated for the cytotoxicity against B16 melanoma cells after 40h incubation expressed as ratio relative to that of taxol. The class given is functional, Mus musculus.
The target of test [3] is Tubulin alpha chain (Sus scrofa) (UniProt P02550). The description is as §1. In kind it is functional.
Test [4] concerns B16. Briefly: Compound was evaluated for the cytotoxicity against B16 melanoma cells after 40h incubation expressed as ratio relative to that of taxol; NA - No cytotoxicity. In kind it is functional, cell-based. Conditions: Mus musculus.

Chain of Tubulin alpha chain (Sus scrofa) (P02550 whole entry, looked up): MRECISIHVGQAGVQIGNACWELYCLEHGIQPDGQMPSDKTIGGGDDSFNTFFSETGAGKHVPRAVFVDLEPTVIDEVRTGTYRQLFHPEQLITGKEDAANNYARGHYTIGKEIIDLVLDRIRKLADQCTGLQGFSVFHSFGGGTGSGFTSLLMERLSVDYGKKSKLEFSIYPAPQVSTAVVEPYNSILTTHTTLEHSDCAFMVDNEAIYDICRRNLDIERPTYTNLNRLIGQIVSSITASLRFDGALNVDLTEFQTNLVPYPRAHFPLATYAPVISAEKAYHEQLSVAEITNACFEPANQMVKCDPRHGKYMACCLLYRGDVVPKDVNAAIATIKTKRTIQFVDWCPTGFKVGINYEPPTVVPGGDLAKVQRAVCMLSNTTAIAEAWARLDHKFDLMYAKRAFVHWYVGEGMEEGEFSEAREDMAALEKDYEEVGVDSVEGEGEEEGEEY

As to `CC(=O)O[C@H]1C(=O)[C@@]2(C)[C@H]([C@H](OC(=O)c3ccccc3)[C@]3(O)C[C@H](OC(=O)[C@H](O)[C@@H](NC(=O)c4ccccc4)c4ccccc4)C(C)=C1C3(C)C)[C@]1(OC(C)=O)CO[C@@H]1C[C@@H]2O`, the Ratio in test [1] is 0.7.

Regarding `CC(=O)O[C@H]1C(=O)[C@@]2(C)[C@H]([C@H](OC(=O)c3ccccc3)[C@]3(O)C[C@H](OC(=O)[C@H](O)[C@@H](NC(=O)c4ccc(C(F)(F)F)cc4)c4ccccc4)C(C)=C1C3(C)C)[C@]1(OC(C)=O)CO[C@@H]1C[C@@H]2O`, the “ED50 / ED50 (taxol)” value in the test on B16 [2] is listed as 17.7. The Ratio in test [3] came to 6.

Consider `CC(=O)O[C@H]1C(=O)[C@@]2(C)[C@H]([C@H](OC(=O)c3ccccc3)[C@]3(O)C[C@H](OC(=O)[C@H](O)[C@@H](NC(=O)c4ccc(C)cc4)c4ccccc4)C(C)=C1C3(C)C)[C@]1(OC(C)=O)CO[C@@H]1C[C@@H]2O`, for which the “ED50 / ED50 (taxol)” value with B16 [2] is reported as 1.4. Besides, in test [3], the Ratio was 1.6.

Take `CC(=O)O[C@H]1C(=O)[C@@]2(C)[C@H]([C@H](OC(=O)c3ccccc3)[C@]3(O)C[C@H](OC(=O)[C@H](O)[C@@H](NC(=O)c4ccccc4)c4ccc(C(F)(F)F)cc4)C(C)=C1C3(C)C)[C@]1(OC(C)=O)CO[C@@H]1C[C@@H]2O`: the Ratio entry in test [3] is “inactive”. Also, the “ED50 / ED50 (taxol)” value with B16 [4] is “inactive”.

As for `CC(=O)O[C@H]1C(=O)[C@@]2(C)[C@H]([C@H](OC(=O)c3ccccc3)[C@]3(O)C[C@H](OC(=O)[C@H](O)[C@@H](NC(=O)c4ccccc4)c4ccc(C)cc4)C(C)=C1C3(C)C)[C@]1(OC(C)=O)CO[C@@H]1C[C@@H]2O`, in the test on B16 [2], the “ED50 / ED50 (taxol)” value stood at 3. Also, in test [3], the Ratio came to 2.4.
